From patent US20230049231A1 (priority 2019, published 2023)

Target: T1, Kv1.3 potassium channel (Homo sapiens, UniProt P22001)
T1 construct: expressed in transfected cells
Assay: Kv1.3 potassium channel blocker activity, automated whole-cell patch clamp (Patchliner)
Format: cell-based
Procedure: This assay is used to evaluate the disclosed compounds' activities as Kv1.3 potassium channel blockers.
CHO-K1 cells stably expressing Kv1.3 were grown in DMEM containing 10% heat-inactivated FBS, 1 mM sodium pyruvate, 2 mM L-glutamine and G418 (500 μg/ml). Cells were grown in culture flasks at 37° C. in a 5% CO2-humidified incubator.
The cells were bathed in an extracellular solution containing 140 mM NaCl, 4 mM KCl, 2 mM CaCl2), 1 mM MgCl2, 5 mM glucose, and 10 mM HEPES; pH adjusted to 7.4 with NaOH; 295-305 mOsm. The internal solution contained 50 mM KCl, 10 mM NaCl, 60 mM KF, 20 mM EGTA, and 10 mM HEPES; pH adjusted to 7.2 with KOH; 285 mOsm. All compounds were dissolved in DMSO at 30 mM. Compound stock solutions were freshly diluted with external solution to concentrations of 30 nM, 100 nM, 300 nM, 1 μM, 3 μM, 10 μM, 30 μM and 100 μM. The highest content of DMSO (0.3%) was present in 100 μM.
The currents were evoked by applying 100 ms depolarizing pulses from −90 mV (holding potential) to +40 mV were applied with 0.1 Hz frequency. Control (compound-free) and compound pulse trains for each compound concentration applied contained 20 pulses.
10-second breaks were used between pulse trains (see Table 2 below).
Whole-cell current recordings and compound application were enabled by means of an automated patch clamp platform Patchliner (Nanion Technologies GmbH). EPC 10 patch clamp amplifier (HEKA Elektronik Dr. Schulze GmbH) along with Patchmaster software (HEKA Elektronik Dr. Schulze GmbH) was used for data acquisition. Data were sampled at 10 kHz without filtering. Passive leak currents were subtracted online using a P/4 procedure (HEKA Elektronik Dr. Schulze GmbH). Increasing compound concentrations were applied consecutively to the same cell without washouts in between. Total compound incubation time before the next pulse train was not longer than 10 seconds. Peak current inhibition was observed during compound equilibration.
AUC and peak values were obtained with Patchmaster (HEKA Elektronik Dr. Schulze GmbH). To determine IC50, the last single pulse in the pulse train corresponding to a given compound concentration was used. Obtained AUC and peak values in the presence of compound were normalized to control values in the absence of compound. Using Origin (OridinLab), IC50 was derived from data fit to Hill equation: Icompound/Icontrol=(100−A)/(1+([compound]/IC50)nH)+A, where IC50 value is the concentration at which current inhibition is half-maximal, [compound] is the applied compound concentration, A is the fraction of current that is not blocked and nH is the Hill coefficient.

[1] = CHO-K1 cells stably expressing Kv1.3, 100 ms pulses from -90 mV to +40 mV, 0.1 Hz
[2] = Kv1.3 potassium channel, whole-cell patch clamp

T1 sequence (P22001 whole entry): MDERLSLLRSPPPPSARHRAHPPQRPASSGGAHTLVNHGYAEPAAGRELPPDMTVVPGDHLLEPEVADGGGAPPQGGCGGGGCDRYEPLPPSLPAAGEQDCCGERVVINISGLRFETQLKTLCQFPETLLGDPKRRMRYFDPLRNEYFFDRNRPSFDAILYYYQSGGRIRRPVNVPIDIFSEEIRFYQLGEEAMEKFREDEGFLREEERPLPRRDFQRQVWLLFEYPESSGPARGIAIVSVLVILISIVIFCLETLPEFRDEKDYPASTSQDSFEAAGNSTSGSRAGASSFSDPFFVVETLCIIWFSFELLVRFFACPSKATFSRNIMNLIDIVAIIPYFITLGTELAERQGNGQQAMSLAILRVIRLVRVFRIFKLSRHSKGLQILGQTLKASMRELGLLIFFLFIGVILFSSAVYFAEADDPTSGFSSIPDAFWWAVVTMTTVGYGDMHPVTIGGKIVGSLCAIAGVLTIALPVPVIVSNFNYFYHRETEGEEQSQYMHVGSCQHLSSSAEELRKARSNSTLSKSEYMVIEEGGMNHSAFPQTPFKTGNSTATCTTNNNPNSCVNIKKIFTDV

Q: For O=C(CO)N1CC(=O)N2C[C@H](c3c(O)ccc(Cl)c3Cl)CC[C@H]2C1 (relative stereo) [Compound 13, (7S,9aS)-rel-7-(2,3-dichloro-6-hydroxyphenyl)-2-(2-hydroxyacetyl)-hexahydro-1H-pyrido[1,2-a]pyrazin-4-one], which IC50 [1] is on record?
A: The IC50 was < 1000 nM.

Q: How did the IC50 [1] turn out when O=C(CO)N1CC(=O)N2C[C@H](c3c(O)ccc(Cl)c3Cl)CC[C@@H]2C1 (relative stereo) [Compound 26, (7S,9aR)-rel-7-(2,3-dichloro-6-hydroxyphenyl)-2-(2-hydroxyacetyl)-hexahydro-1H-pyrido[1,2-a]pyrazin-4-one] was run?
A: The IC50 was < 10000 nM.

Q: For O=C1CN(C2CC[C@H](O)[C@@H]2O)C[C@@H]2C[C@H](c3c(O)ccc(Cl)c3Cl)CN12 (relative stereo) [Compound 135, (7R,8aS)-7-(2,3-dichloro-6-hydroxyphenyl)-2-[(2R,3S)-rel-2,3-dihydroxycyclopentyl]-hexahydropyrrolo [1,2-a]pyrazin-4-one], which IC50 [2] is on record?
A: Its IC50 is < 1000 nM.

Q: Which IC50 [2] does the source give for O=C1C[C@@H](O)[C@@H](O)[C@@H]2C[C@H](c3c(O)ccc(Cl)c3Cl)CN12 (relative stereo) [Compound 224, (7R,8S)-rel-(2R, 8aS)-2-(2,3-dichloro-6-hydroxyphenyl)-7,8-dihydroxy-hexahydro-1H-indolizin-5-one] here?
A: The IC50 was < 1000 nM.

Q: How did the IC50 [1] turn out when O=C1[C@H](CO)OC[C@@H]2C[C@H](c3c(O)ccc(Cl)c3Cl)CCN12 (single isomer, unassigned) [Compound 43] was run?
A: The IC50 was < 1000 nM.

Q: O=C1C[C@@H](c2cc[nH]n2)C[C@@H]2C[C@H](c3c(O)ccc(Cl)c3Cl)CN12 (single isomer, unassigned) [Compound 213] was tested. Which IC50 [2] did it give?
A: Its IC50 is < 1000 nM.

Q: How did the IC50 [2] turn out when O=C1C[C@H](c2cc[nH]n2)C[C@@H]2C[C@H](c3c(O)ccc(Cl)c3Cl)CN12 (single isomer, unassigned) [Compound 214] was run?
A: Its IC50 is < 10000 nM.

Q: Which IC50 [2] does the source give for O=C1CC[C@@H](O)[C@@H]2C[C@H](c3c(O)ccc(Cl)c3Cl)CN12 (single isomer, unassigned) [Compound 227] here?
A: The IC50 was < 1000 nM.

Q: N#C[C@@H]1CC(=O)N2C[C@@H](c3c(O)ccc(Cl)c3Cl)C[C@H]2C1 (single isomer, unassigned) [Compound 228] was tested. Which IC50 [2] did it give?
A: Its IC50 is < 1000 nM.

Q: For NC(=O)[C@@H]1CC(=O)N2C[C@@H](c3c(O)ccc(Cl)c3Cl)C[C@H]2C1 (single isomer, unassigned) [Compound 230], which IC50 [2] is on record?
A: The IC50 was < 1000 nM.

Q: For O=C(NCCO)[C@H]1CC(=O)N2C[C@@H](c3c(O)ccc(Cl)c3Cl)C[C@H]2C1 (single isomer, unassigned) [Compound 233], which IC50 [2] is on record?
A: The IC50 was < 1000 nM.

Q: With O=C1[C@@H](O)C[C@@H]2C[C@H](c3c(O)ccc(Cl)c3Cl)CN12 (single isomer, unassigned) [Compound 245] as the molecule, how does the IC50 [2] read?
A: Its IC50 is < 1000 nM.

Q: O=C1[C@H](O)C[C@@H]2C[C@H](c3c(O)ccc(Cl)c3Cl)CN12 (single isomer, unassigned) [Compound 246] was tested. Which IC50 [2] did it give?
A: Its IC50 is < 1000 nM.

Q: How did the IC50 [2] turn out when N[C@@H]1C[C@@H]2C[C@H](c3c(O)ccc(Cl)c3Cl)CN2C1=O (single isomer, unassigned) [Compound 249] was run?
A: The IC50 was < 1000 nM.

Q: Which IC50 [2] does the source give for CC(C)(O)[C@H]1OC(=O)N2C[C@@H](c3c(O)ccc(Cl)c3Cl)C[C@@H]12 (single isomer, unassigned) [Compound 255] here?
A: Its IC50 is < 1000 nM.

Q: Which IC50 [2] does the source give for C[C@@H]1[C@@H]2C[C@H](c3c(O)ccc(Cl)c3Cl)CCN2C(=O)CN1C(=O)CO (single isomer, unassigned; isomer 1) [Compound 83] here?
A: The IC50 was < 10000 nM.

Q: Which IC50 [2] does the source give for C[C@@H]1[C@@H]2C[C@H](c3c(O)ccc(Cl)c3Cl)CN2C(=O)CN1C(=O)CO (single isomer, unassigned; isomer 1) [Compound 87] here?
A: Its IC50 is < 1000 nM.

Q: Which IC50 [1] does the source give for C[C@@H](CO)C(=O)N1CC(=O)N2CC[C@H](c3c(O)ccc(Cl)c3Cl)C[C@@H]2C1 [Compound 3, (8S,9aR)-8-(2,3-dichloro-6-hydroxyphenyl)-2-((S)-3-hydroxy-2-methylpropanoyl)octahydro-4H-pyrido[1,2-a]pyrazin-4-one] here?
A: The IC50 was < 1000 nM.

Q: Which IC50 [1] does the source give for O=C(CO)N1CC(=O)N2CC[C@H](c3c(O)cc(Cl)c(Cl)c3Cl)C[C@@H]2C1 [Compound 5, (8S,9aR)-2-(2-hydroxyacetyl)-8-(2,3,4-trichloro-6-hydroxyphenyl)-hexahydro-1H-pyrido[1,2-a]pyrazin-4-one] here?
A: The IC50 was < 1000 nM.

Q: O=C1N[C@H](CO)CN2CC[C@@H](c3c(O)ccc(Cl)c3Cl)C[C@@H]12 [Compound 6, (3S,8R,9aS)-8-(2,3-dichloro-6-hydroxyphenyl)-3-(hydroxymethyl)-octahydropyrido[1,2-a]pyrazin-1-one] was tested. Which IC50 [1] did it give?
A: The IC50 was < 10000 nM.

Q: How did the IC50 [1] turn out when C[C@@H]1C(=O)N2CC[C@@H](c3c(O)ccc(Cl)c3Cl)C[C@H]2CN1C(=O)CO [Compound 12, (3R,8R,9aS)-8-(2,3-dichloro-6-hydroxyphenyl)-2-(2-hydroxyacetyl)-3-methyloctahydro-4H-pyrido[1,2-a]pyrazin-4-one] was run?
A: Its IC50 is < 10000 nM.

Q: How did the IC50 [1] turn out when O=C1N[C@H](CO)CN2CC[C@H](c3c(O)ccc(Cl)c3Cl)C[C@H]12 [Compound 19, (3S,8S,9aR)-8-(2,3-dichloro-6-hydroxyphenyl)-3-(hydroxymethyl)-octahydropyrido[1,2-a]pyrazin-1-one] was run?
A: The IC50 was < 10000 nM.

Q: C[C@H](CO)C(=O)N1CC(=O)N2CC[C@H](c3c(O)ccc(Cl)c3Cl)C[C@@H]2C1 [Compound 20, (8S,9aR)-8-(2,3-dichloro-6-hydroxyphenyl)-2-((R)-3-hydroxy-2-methylpropanoyl)octahydro-4H-pyrido[1,2-a]pyrazin-4-one] was tested. Which IC50 [1] did it give?
A: The IC50 was < 1000 nM.

Q: With CN(C)C(=O)N1CC(=O)N2C[C@@H](c3c(O)ccc(Cl)c3Cl)C[C@H]2C1 [Compound 30, (7R,8aS)-7-(2,3-dichloro-6-hydroxyphenyl)-N,N-dimethyl-4-oxohexahydropyrrolo[1,2-a]pyrazine-2(1H)-carboxamide] as the molecule, how does the IC50 [1] read?
A: Its IC50 is < 1000 nM.

Q: How did the IC50 [1] turn out when CC(C)(O)C(=O)N1CC(=O)N2CC[C@@H](c3c(O)ccc(Cl)c3Cl)C[C@H]2C1 [Compound 31, (8R,9aS)-8-(2,3-dichloro-6-hydroxyphenyl)-2-(2-hydroxy-2-methylpropanoyl)octahydro-4H-pyrido[1,2-a]pyrazin-4-one] was run?
A: The IC50 was < 1000 nM.

Q: With O=C1[C@@H](CO)NC[C@H]2C[C@@H](c3c(O)ccc(Cl)c3Cl)CCN12 [Compound 36, (3R,8S,9aR)-8-(2,3-dichloro-6-hydroxyphenyl)-3-(hydroxymethyl)-octahydropyrido[1,2-a]pyrazin-4-one] as the molecule, how does the IC50 [1] read?
A: Its IC50 is < 1000 nM.

Q: Which IC50 [1] does the source give for O=C1CNC[C@H]2C[C@@H](c3c(O)ccc(Cl)c3Cl)CCN12 [Compound 39] here?
A: The IC50 was < 1000 nM.

Q: How did the IC50 [1] turn out when O=C(CO)N1CC(=O)N2CC[C@H](c3c(O)ccc(Cl)c3Cl)C[C@@H]2C1 [Compound 48, (8S,9aR)-8-(2,3-dichloro-6-hydroxyphenyl)-2-(2-hydroxyacetyl)-hexahydro-1H-pyrido[1,2-a]pyrazin-4-one] was run?
A: The IC50 was < 1000 nM.

Q: O=C([C@@H](O)CO)N1CC(=O)N2CC[C@H](c3c(O)ccc(Cl)c3Cl)C[C@@H]2C1 [Compound 51, (8S,9aR)-8-(2,3-dichloro-6-hydroxyphenyl)-2-[(2S)-2,3-dihydroxypropanoyl]-hexahydro-1H-pyrido[1,2-a]pyrazin-4-one] was tested. Which IC50 [1] did it give?
A: Its IC50 is < 1000 nM.

Q: C[C@@H](O)CC(=O)N1CC(=O)N2C[C@@H](c3c(O)ccc(Cl)c3Cl)C[C@H]2C1 [Compound 53, (7R,8aS)-7-(2,3-dichloro-6-hydroxyphenyl)-2-[(3R)-3-hydroxybutanoyl]-hexahydropyrrolo[1,2-a]pyrazin-4-one] was tested. Which IC50 [1] did it give?
A: The IC50 was < 1000 nM.

Q: CO[C@@H](CO)C(=O)N1CC(=O)N2CC[C@@H](c3c(O)ccc(Cl)c3Cl)C[C@H]2C1 [Compound 56, (8R,9aS)-8-(2,3-dichloro-6-hydroxyphenyl)-2-[(2S)-3-hydroxy-2-methoxypropanoyl]-hexahydro-1H-pyrido[1,2-a]pyrazin-4-one] was tested. Which IC50 [1] did it give?
A: The IC50 was < 1000 nM.

Q: How did the IC50 [1] turn out when O=C(CCO)N1CC(=O)N2CC[C@H](c3c(O)ccc(Cl)c3Cl)C[C@@H]2C1 [Compound 58, (8S,9aR)-8-(2,3-dichloro-6-hydroxyphenyl)-2-(3-hydroxy-propanoyl)octahydro-4H-pyrido[1,2-a]pyrazin-4-one] was run?
A: The IC50 was < 1000 nM.

Q: For C[C@H]1C(=O)N2C[C@@H](c3c(O)ccc(Cl)c3Cl)C[C@H]2CN1C(=O)CO [Compound 60, (3S,7R,8aS)-7-(2,3-dichloro-6-hydroxyphenyl)-2-(2-hydroxyacetyl)-3-methyl-hexahydropyrrolo[1,2-a]pyrazin-4-one], which IC50 [1] is on record?
A: Its IC50 is < 1000 nM.
